Test results published in US20240398767A1, “INHIBITORS OF THE MTDH-SND1 PROTEIN COMPLEX FOR CANCER THERAPY” (The Trustees of Princeton University, priority 2021, published 2024).

How the values were obtained:
[1] = tested on: SCP28 tumors with MTDH or SND1 KD; experiment: SCP28 tumor models with MTDH or SND1 KD; assay type: in vivo, NSG females
Experimental: FIG. 17A, Indicated cells were injected into NSG females orthotopically and followed by vehicle or C26-A6 treatment after 2 weeks. Tumor volumes were measured 8 weeks after injection. Vehicle, n=6 mice; C26-A6, n=6 mice.
FIG. 17B, Spontaneous lung metastasis of the mice in FIG. 17A were assessed by BLI (right). Size bar, 5 mm. Vehicle, n=5 lungs; C26-A6, n=6 lungs.
FIG. 17C, The SND1 and MTDH expression of the cells used in FIG. 17A was evaluated.
Next, to further validate that the anti-tumor effect of C26-A6 depends on its on-target effects by disrupting MTDH-SND1 complex, PyMT; UBC-Cre^ERT+/−;Mtdh^fl/fl tumor cells with Mtdh depletion or with endogenous Snd1 KD were employed for the similar assay as in FIG. 5-1a. […] Likewise, MTDH or SND1 KD abolished the C26-A6 treatment-induced primary tumor inhibition or metastasis reduction in SCP28 tumor models (Extended Data FIG. 10-1a-c).

4TO7 lung metastases = experiment: Established 4TO7 lung macrometastases; assay type: in vivo, Balb/C females
Experimental: For FIGS. 7A-7D, 2 k 4TO7 cells were injected into Balb/C females. 2 weeks after the injections, the mice were randomized based on lung metastasis that indicated by BLI, and were divided into four groups followed by vehicle, paclitaxel (Pac), and C26-A6 treatment alone or in combination. For Pac, the mice were treated with 20 mg/kg of Pac twice per week for the first two week and then once per week after that, For C26-A6, the mice were treated with 15 mg/kg of C26-A6 5 days per week. n=6 mice per group. Data represent mean±SEM.
FIG. 7A, Representative mice right before the treatment (week 2) and at week 10 are shown.
FIG. 7B, The BLI signal was quantified at week 2. Significance determined by one-way ANOVA analysis with Dunnett's test for multiple comparisons.
FIG. 7C, The metastasis progression of each individual is shown.
FIG. 7D, Survival rate in each group was analyzed. Significance determined by two-sided Log-rank test.
Lastly, to mimic the clinical scenario of adjuvant chemotherapy following surgical removal of the primary tumors, SCP28 mammary tumors were removed when they reached 5 mm in diameter, the mice were then randomly separated into four groups and subjected to the different treatment regimens as above. […] The mice were then treated with vehicle or paclitaxel and C26-A6 alone or in combination, and the metastasis progression was monitored by BLL.

SCP28 xenograft tumor = SCP28 xenograft tumor model in NSG mice; assay type: in vivo; details: 8 weeks treatment
Experimental: FIG. 13A, NGS female mice injected with 2 k SCP28 cells orthotopically were subjected to vehicle or C26-A6 treatment after two weeks. Primary tumor volumes were measured.
FIG. 13B, 8 weeks after treatment, tumor mass was assessed. Vehicle, n=10 mice; C26-A6, n=10 mice. Size bar, 2 cm.
FIG. 13C, 8 weeks after treatment, lung metastasis was assessed. Vehicle, n=10 mice; C26-A6, n=10 mice. Size bar, 5 mm.

[2] = tested on: E0771-OVA control (shCtrl) cells; experiment: E0771-OVA shCtrl cells / OT-I splenocyte co-culture; assay type: cell-based, mouse; details: 24 hr co-culture
Description: For FIGS. 33B-33D, E0771-OVA cells with (shTap1/2) or without (shCtrl) Tap1/2 knockdown were co-cultured with OT-I splenocytes with the ratio of 1:10 (tumor cells:splenocytes). Data represent mean±SEM. n=3 independent experiments. Significance determined by one-way ANOVA analysis with Sidak's test for multiple comparisons.
FIG. 33B, 24 hr after co-culture, tumor cells were collected for examining OVA (H-2K^b-SIINFEKL) expression.
FIG. 33C, 24 hr after co-culture, tumor cells were collected for examining MHC-I expression.
FIG. 33D, 24 hr after co-culture, splenocytes were collected for examining CD137 expression.
MTDH-SND1 suppresses antigen presentation by reducing Tap1/2. To confirm that MTDH-SND1 drives immune evasion through suppressing the Tap1/2 pathway, antigen presentation-deficient cells were generated by knocking down Tap1/2^20. E0771-OVA cells were transduced with lentiviruses expressing Tap1/2-targeting shRNAs. Tap1/2 KD was confirmed by western blot (FIG. 33A), and antigen presentation deficiency upon Tap1/2 KD was also validated (FIGS. 33B, 33C). Next, shCtrl (control shRNA) or Tap1/2 KD cells were co-cultured with OT-I splenocytes together with vehicle or C26-A6 treatment.

`COc1ccc(Cl)cc1S(=O)(=O)Nc1cccn2nc(C)nc12` [Analog C26-A6] was tested, and the “C26-A6 treatment-induced primary tumor inhibition or metastasis reduction” value [1] was “abolished”, the “metastatic growth (BLI)” value (4TO7 lung metastases; Pac 20 mg/kg, C26-A6 15 mg/kg 5 days per week) was “slowed down metastatic growth” and the metastasis shrinkage (4TO7 lung metastases; six mice per group) was “did not result in metastasis shrinkage”. The “primary tumor growth and lung metastasis” value (SCP28 xenograft tumor) was “confirmed” and the “antigen presentation and T cell activation” value [2] was “significant increase”.
